According to article PMC10956426, “Lipid-Binding Regions within PKC-Related Serine/Threonine Protein Kinase N1 (PKN1) Required for Its Regulation” (Biochemistry, 2024):

Target: T1, PKN1-(C2), PKN1-(C2)-(342–605) (Rattus norvegicus, UniProt Q63433)
T1 construct: predominantly trimer
Assay: intrinsic tryptophan fluorescence quenching, Scatchard
Format: binding
Settings: 3 lipids per trimer, 20 mM phosphate pH 7.4, 25 mM NaCl, 25 °C, sonicated vesicles
Source text: intrinsic tryptophan fluorescence quenching, Scatchard on PKN1-(C2), PKN1-(C2)-(342–605)

[1] = type I (high-affinity) site of a biphasic curve

T1 sequence (Q63433 342-605): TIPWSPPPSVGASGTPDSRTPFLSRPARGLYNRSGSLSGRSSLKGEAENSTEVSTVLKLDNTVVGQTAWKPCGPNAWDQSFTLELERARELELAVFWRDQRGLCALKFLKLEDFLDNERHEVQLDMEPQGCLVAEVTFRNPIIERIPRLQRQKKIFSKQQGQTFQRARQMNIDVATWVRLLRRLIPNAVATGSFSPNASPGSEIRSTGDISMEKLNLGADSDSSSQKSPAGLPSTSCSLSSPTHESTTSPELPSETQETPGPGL

Kd (one class of sites) [nM]	Kd [1] [nM]	Substance
100	–	phosphatidylcholine
–	1000 ± 600	cardiolipin
–	300	phosphatidic acid
200	–	phosphatidylserine
